Experimental data taken from patent US20150094354A1, “METHOD FOR TREATING CELL PROLIFERATIVE DISORDER BY INHIBITING C1GALT1 EXPRESSION” (National Taiwan University, priority 2013, published 2015).

Experiments:
C1GALT1 [1] = target: T1, C1GALT1 (Homo sapiens, UniProt Q9NS00); assay: FITC-VVA FACS analysis of Tn antigen accumulation in CL1-5 lung cancer cells; assay type: cell-based; set-up: endogenous in cells; settings: for VVA peak shift (accumulation of Tn antigens): itraconazole 10 ug/ml
Procedure: (§1) FIGS. 85A-85D are graphs illustrating that itraconazole impairs C1GALT1 function leading to the accumulation of Tn antigen expression in lung cancer cells in accordance with an embodiment of the present invention. […] After itraconazole treatment, cells are detached with 5 mM EDTA. Afterwards, FITC conjugated Vicia villosa agglutinin (VVA), lectin specifically recognizing Tn antigen, is applied for analysis with a fluoresencce-activated cell sorting (FACS) system. A right-shift of the VVA peak indicates accumulation of Tn antigens. […] After itraconazole treatment, cells are detached with 5 mM EDTA and treated with or without 10 mU/ml neuraminidase to unmask the effects of sialylated O-glycans. After treatment with neuraminidase, FITC conjugated Vicia villosa agglutinin (VVA), lectin specifically recognizing Tn antigen, is applied for analysis with a fluoresencce-activated cell sorting (FACS) system. […] To confirm whether the peak shift is a result of impaired C1GALT1 function, mock and C1GALT1 overexpressed CL1-5 cells are analyzed. […] Overexpression of C1GALT1 results in a left-shift of the VVA peak in itraconazole untreated transfectants, indicating intact C1GALT1 function in depleting Tn antigens as substrates for T antigen synthesis.
Target sequence in this assay (Q9NS00 whole entry): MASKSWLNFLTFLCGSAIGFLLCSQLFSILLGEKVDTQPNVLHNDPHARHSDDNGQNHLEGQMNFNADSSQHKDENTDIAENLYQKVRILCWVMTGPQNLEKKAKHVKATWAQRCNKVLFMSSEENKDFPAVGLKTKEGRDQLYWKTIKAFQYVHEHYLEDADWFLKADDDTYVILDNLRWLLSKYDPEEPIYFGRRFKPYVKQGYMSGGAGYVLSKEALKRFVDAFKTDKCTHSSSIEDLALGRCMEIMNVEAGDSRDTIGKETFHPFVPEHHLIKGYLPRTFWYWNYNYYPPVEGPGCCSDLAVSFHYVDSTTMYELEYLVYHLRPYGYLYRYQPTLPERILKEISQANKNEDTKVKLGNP

HCC36 cell lines = assay: MTT cell growth assay, liver cancer cells; assay type: cell-based, human; set-up: dose or concentration left out as unconfirmed; settings: HCC36, itraconazole for 5 days, compared with control (DMSO)
Procedure: (§2) FIG. 88C is a schematic diagram illustrating that itraconazole suppresses liver cancer cell growth in accordance with an embodiment of the present invention. To determine whether impairing C1GALT1 function affects liver cancer cell malignant phenotypes, the effects of itraconazole on liver cancer cell growth are analyzed by MTT cell growth assay in HCC36 cell lines. Cells (3×10^3) are seeded into 96-well microtitre plates and treated with DMSO (control) or itraconazole 10 µg/ml for 5 days at 37° C. under 5% CO2 atmosphere. Results from two independent experiments are presented as mean±SD and analyzed with student's t-test, *p<0.05 and **p<0.01.

CL1-5 cell lines = assay: MTT cell growth assay, lung cancer cells; assay type: cell-based, human; set-up: dose or concentration left out as unconfirmed; settings: CL1-5, itraconazole for 5 days, compared with control (DMSO)
Procedure: as §2, with “88A” for “88C”, “lung” for “liver”, “CL1-5” for “HCC36”

C1GALT1 [2] = target: T1, C1GALT1; assay: FITC-VVA FACS analysis of Tn antigen accumulation in T47D breast cancer cells; assay type: cell-based; set-up: endogenous in cells; host or cells: T47D breast cancer cells
Procedure: as §1, with “86A-86D” for “85A-85D”, “breast” for “lung”, “indicates the” for “indicates”, “T47D” for “CL1-5”, “itraconazole-untreated” for “itraconazole untreated”

T47D cell lines = assay: MTT cell growth assay, breast cancer cells (itraconazole); assay type: cell-based, human; set-up: dose or concentration left out as unconfirmed; settings: itraconazole for 5 days, compared with control (DMSO)
Procedure: as §2, with “88B” for “88C”, “breast” for “liver”, “T47D” for “HCC36”

C1GALT1 [3] = assay: FITC-VVA FACS analysis of Tn antigen accumulation in T47D breast cancer cells; assay type: cell-based, human; settings: mock and C1GALT1 overexpressed T47D transfectants, itraconazole 10 ug/ml
Procedure: as §1, with “86A-86D” for “85A-85D”, “breast” for “lung”, “indicates the” for “indicates”, “T47D” for “CL1-5”, “itraconazole-untreated” for “itraconazole untreated”

C1GALT1 [4] = target: T1, C1GALT1; assay: FITC-VVA FACS analysis of Tn antigen accumulation in HCC36 liver cancer cells; assay type: cell-based; set-up: endogenous in cells; settings: for VVA peak shift (accumulation of Tn antigens): itraconazole 10 ug/ml
Description: According to another embodiment of the present invention, in the experiment in vitro, itraconazole, a small molecular drug, is used as the C1GALT1 inhibition substance. Itraconazole is an FDA approved drug that is clinically employed as an antimicrobial for the treatment of fungal, mycosis, and candida infections. The inventors of the present invention discovered that the structure of itraconazole is suitable for binding to the catalytic domain of C1GALT1 and inhibiting C1GALT1. Cells are cultured in DMEM with 10% FBS and treated with itraconazole 10 ug/ml for 3 days at 37° C. under 5% CO2.
FIGS. 87A-87D are graphs illustrating that itraconazole impairs C1GALT1 function leading to accumulation of Tn antigen expression in […] cancer cells in accordance with an embodiment of the present invention. […] After itraconazole treatment, cells are detached with 5 mM EDTA. Afterwards, FITC conjugated Vicia villosa agglutinin (VVA), lectin specifically recognizing Tn antigen, is applied for analysis with a fluoresencce-activated cell sorting (FACS) system. A right-shift of VVA peak indicates the accumulation of Tn antigens. […] After itraconazole treatment, cells are detached with 5 mM EDTA and treated with or without 10 mU/ml neuraminidase to unmask the effects of sialylated O-glycans. After treatment with neuraminidase, FITC conjugated Vicia villosa agglutinin (VVA), lectin specifically recognizing Tn antigen, is applied for analysis with a fluoresencce-activated cell sorting (FACS) system. […] To confirm whether the peak shift is a result of impaired C1GALT1 function, mock and C1GALT1 overexpressed HCC36 cells are analyzed. […] Overexpression of C1GALT1 results in left-shift of the VVA peak in itraconazole-untreated transfectants, indicating intact C1GALT1 function in depleting Tn antigens as substrates for T antigen synthesis.
Target sequence in this assay (Q9NS00 whole entry): as above

HCC36 cells = assay: Trypan blue exclusion assay of C1GALT1-enhanced cell viability with MET inhibitor; assay type: cell-based, human; settings: HCC36, C1GALT1 overexpression, 72 hours
Procedure: (§3) Cells (4×10^4) are seeded in each well of 6-well plates with DMEM containing 10% FBS. Viable cells are analyzed by Trypan blue exclusion assay at 0, 24, 48, and 72 hours. Cell proliferation is evaluated by immunostaining with anti-Ki67 antibody (1:1000; Vector Laboratories). For cell-cycle analysis, 1×10^6 cells are stained with propidium iodide (Sigma) for 30 minutes. The percentages of cells in G1, S, and G2M phases are analyzed by flow cytometry (Becton Dickinson). […] Data are represented as means±SD from three independent experiments (** refers to P<0.01).

Sk-Hep1 cells = assay: as above; assay type: cell-based, human; settings: Sk-Hep1, C1GALT1 overexpression, 72 hours
Procedure: as §3

In the case of `CCC(C)n1ncn(-c2ccc(N3CCN(c4ccc(OCC5COC(Cn6cncn6)(c6ccc(Cl)cc6Cl)O5)cc4)CC3)cc2)c1=O` (centres unmarked) [itraconazole], the “VVA peak shift (accumulation of Tn antigen substrates)” value (C1GALT1 [1]; C1GALT1 overexpressed CL1-5 cells, sialylated O-glycans unmasked by neuraminidase) is reported as “major peak shifts to the right”, the “VVA peak shift (accumulation of Tn antigens)” value (C1GALT1 [1]; CL1-5 parental cells, regardless of sialylated O-glycans) is reported as “right shift of the VVA peak” and the “VVA peak shift (accumulation of Tn antigens)” value (C1GALT1 [1]; mock and C1GALT1 overexpressed CL1-5 transfectants) is reported as “major right-shift of the VVA peaks”. For the same compound, the “liver cancer cell growth” value (HCC36 cell lines) was “significantly suppressed”, the “lung cancer cell growth” value (CL1-5 cell lines) was “significantly suppressed” and the “VVA peak shift (accumulation of Tn antigen substrates)” value (C1GALT1 [2]; C1GALT1 overexpressed T47D cells, sialylated O-glycans unmasked by neuraminidase) was “major peak shifts to the right”. The “VVA peak shift (accumulation of Tn antigens)” value (C1GALT1 [2]; T47D parental cells, itraconazole 10 ug/ml, regardless of sialylated O-glycans) was “right shift of the VVA peak”, the “breast cancer cell growth” value (T47D cell lines) was “significantly suppressed” and the “VVA peak shift (accumulation of Tn antigens)” value (C1GALT1 [3]) was “major right-shift of the VVA peaks”. For the same compound, the “VVA peak shift (accumulation of Tn antigen substrates)” value (C1GALT1 [4]; C1GALT1 overexpressed HCC36 cells, sialylated O-glycans unmasked by neuraminidase) was “major peak shifts to the right”, the “VVA peak shift (accumulation of Tn antigens)” value (C1GALT1 [4]; HCC36 parental cells, regardless of sialylated O-glycans) was “right shift of the VVA peak” and the “VVA peak shift (accumulation of Tn antigens)” value (C1GALT1 [4]; mock and C1GALT1 overexpressed HCC36 transfectants) was “major right-shift of the VVA peaks”.
`Cc1[nH]c(/C=C2\C(=O)Nc3ccc(S(=O)(=O)Cc4c(Cl)cccc4Cl)cc32)c(C)c1C(=O)N1CCC[C@@H]1CN1CCCC1` [PHA665752] was tested, and the C1GALT1-enhanced cell viability (HCC36 cells) was “significantly inhibited” and the C1GALT1-enhanced cell viability (Sk-Hep1 cells) was “significantly inhibited”.
